This passage reports blood pressure and heart rate results from patent publication US20160318866A1, “SUBSTITUTED BIPIPERIDINYL DERIVATIVES” (Bayer Pharma Aktiengesellschaft, priority 2013, published 2016).

For this data set, the system named is adult female Wistar rats. Description: Radiotelemetric measurement of blood pressure and heart rate of conscious rats. In kind it is in vivo, rat. Particulars: 5 and 15 mg/kg, oral, telemetry over 24 hours. The text has this:
A commercially available telemetry system from Data Sciences International DSI, USA, was employed for the measurements on conscious rats described below. The system consists of 3 main components: (1) implantable transmitters (Physiotel® telemetry transmitter), (2) receivers (Physiotel® receiver), which are linked via a multiplexer (DSI Data Exchange Matrix) to a (3) data acquisition computer. The telemetry system makes it possible to continuously record blood pressure, heart rate and body motion of conscious animals in their usual habitat.
The studies were conducted on adult female Wistar rats with a body weight of >200 g. After transmitter implantation, the experimental animals were housed singly in type III Makrolon® cages. They had free access to standard feed and water. The day/night rhythm in the test laboratory was set by changing the illumination of the room.
The telemetry transmitters used (PA-C40, DSI) were surgically implanted under aseptic conditions in the experimental animals at least 14 days before the first experimental use.
For the implantation, the fasted animals were anaesthetized with isoflurane (IsoFlo®, Abbott, initiation 5%, maintenance 2%) and shaved and disinfected over a large area of their abdomens. […]
Each of the instrumented rats living in the system was assigned a separate receiving antenna (RPC-1 Receiver, DSI). […] The signals emitted were detected online by a data acquisition system (Dataquest™ A.R.T. for Windows, DSI) and processed accordingly.
In the standard procedure, the following were measured for 10-second periods in each case: (1) systolic blood pressure (SBP), (2) diastolic blood pressure (DBP), (3) mean arterial pressure (MAP), (4) heart rate (HR) and (5) activity (ACT). These parameters were measured over 24 hours after administration.
The acquisition of measurements was repeated under computer control at 5-minute intervals. The source data obtained as absolute values were corrected in the diagram with the currently measured barometric pressure (Ambient Pressure Reference Monitor, APR-1, DSI). […]

As for `CC1CCCN(C2CCN(C(=O)c3ccc(C(C)(C)O)cc3)CC2)C1` (single isomer, unassigned) [Example 8, [4-(1-Hydroxy-1-methylethyl)phenyl)](3-methyl-1,4′-bipiperidin-1′-yl)methanone, (−)-enantiomer], the blood pressure entry is on record as “without any effect on blood pressure” and the heart rate entry is recorded as “slight transient increase of the heart rate”.
